Test system: rumen fluid batch culture
Test: Rumen fluid batch culture test: volatile fatty acid, gas (CH4 + H2), protein and amino acid accumulation (Example 2)
Format: cell-based, steers
Design: HFo (formate) / HAc (acetate) / HPr (propionate) / HiBu (isobutyrate) / HBu (butyrate) / HiVal (isovalerate) / Total / Caloric Value of H2 / Caloric Value of HFo / Caloric Value of HAc / Caloric Value of HPr / Caloric Value of HiBu / Caloric Value of HBu / Caloric Value of HiVal / Caloric Value of CH3: unit not given here
Description: The above Formula IV composition was tested to determine its effectiveness as a feed additive for ruminants. The initial tests were in rumen fluid batch culture systems to determine the effect of the compound on volatile fatty acid/methane ratios (VFA/CH4). […] Test Procedure: A 50/50 mixture of ground corn and ground alfalfa was used as the substrate for the subject rumen fluid batch culture test. The compound (Formula IV ) was present in the rumen fluid in three separate test samples at 8.33, 25 and 75 ppm, respectively. On day 1, rumen fluid was obtained from mature fistulated steers on 50/50 concentrate/roughage diets. The rumen fluid (RF) was strained through three layers of gauze cloth and equilibrated with C02 gas. Wheaton serum vials (125 ml) were prepared ahead with 20 ml continuous batch buffer and 100 mg 50/50 ground corn/ground alfalfa. Controls and compounds (dissolved in acetone) were set up according to desired levels. The vials were kept under C02 gas until 20 ml of the strained RF was added. The vials were sealed and incubated at 39°C for 24 hours in a hot water bath. On successive days, gas samples (0.1 ml) were drawn for gas chromatography analysis before transferring 20 ml of the batch culture to another vial containing 20 ml of buffer, 100 mg substrate, and the corresponding compound. The remaining 20 ml was inoculated with 2 ml 6N HC1 and centrifuged at 15,000 rpm for 15 minutes. Ether extracts were prepared for volatile fatty acid (VFA) analysis. Some minor adjustments were made in the termperatures on the Hewlett-Packard 5750 Gas-Liquid Chromatograph used for VFA analysis when the glass column used was changed from 1/4 inch diameter to 1/8 inch diameter. Injection Port = 220°C Column Oven = 170°C Flame Detector = 250°C Only 4 minutes was needed to record the sample instead of the previous 7 minutes.

[1] = 75 μg/ml, total produced on Day 10
[2] = all levels tested (8.33, 25 and 75 ppm), versus control

Substance: 2,2'-(4,5-diphenyl-2H-imidazol-2-ylidene)bispyridine with CuCl2(1/1) [Formula IV Compound]
- HPr (propionate) (75 µg/ml, day 5): 17.24
- HiBu (isobutyrate) (75 µg/ml, day 5): 0.51
- HiVal (isovalerate) (75 µg/ml, day 5): 0.26
- Total (75 µg/ml, day 5): 47.03
- AA (75 µg/ml, day 6): 0.20 µ Moles/ml
- CH4 (75 µg/ml, day 6): 67 µ Moles
- H2 (75 µg/ml, day 6): 0 µ Moles
- HAc (acetate) (75 µg/ml, day 6): 25.01
- HBu (butyrate) (75 µg/ml, day 6): 1.78
- HFo (formate) (75 µg/ml, day 6): 0.51
- HPr (propionate) (75 µg/ml, day 6): 16.43
- HiBu (isobutyrate) (75 µg/ml, day 6): 0.39
- HiVal (isovalerate) (75 µg/ml, day 6): 0.58
- Protein (75 µg/ml, day 6): 0.02 mg/mL
- Total (75 µg/ml, day 6): 44.68
- AA (75 µg/ml, day 7): 0.26 µ Moles/ml
- CH4 (75 µg/ml, day 7): 3 µ Moles
- H2 (75 µg/ml, day 7): 0 µ Moles
- HAc (acetate) (75 µg/ml, day 7): 19.59
- HBu (butyrate) (75 µg/ml, day 7): 9.9
- HFo (formate) (75 µg/ml, day 7): 3.17
- HPr (propionate) (75 µg/ml, day 7): 14.41
- HiBu (isobutyrate) (75 µg/ml, day 7): 0.83
- HiVal (isovalerate) (75 µg/ml, day 7): 0.10
- Protein (75 µg/ml, day 7): 0.01 mg/mL
- Total (75 µg/ml, day 7): 48.01
- AA (75 µg/ml, day 8): 0.31 µ Moles/ml
- CH4 (75 µg/ml, day 8): 3 µ Moles
- H2 (75 µg/ml, day 8): 0 µ Moles
- HAc (acetate) (75 µg/ml, day 8): 17.86
- HBu (butyrate) (75 µg/ml, day 8): 11.25
- HFo (formate) (75 µg/ml, day 8): 3.52
- HPr (propionate) (75 µg/ml, day 8): 14.08
- HiBu (isobutyrate) (75 µg/ml, day 8): 2.61
- HiVal (isovalerate) (75 µg/ml, day 8): 0
- Protein (75 µg/ml, day 8): 0 mg/mL
- Total (75 µg/ml, day 8): 49.31
- AA (75 µg/ml, day 9): 0.34 µ Moles/ml
- CH4 (75 µg/ml, day 9): 0 µ Moles
- H2 (75 µg/ml, day 9): 11 µ Moles
- HAc (acetate) (75 µg/ml, day 9): 18.93
- HBu (butyrate) (75 µg/ml, day 9): 9.21
- HFo (formate) (75 µg/ml, day 9): 2.61
- HPr (propionate) (75 µg/ml, day 9): 13.41
- HiBu (isobutyrate) (75 µg/ml, day 9): 3.16
- HiVal (isovalerate) (75 µg/ml, day 9): 0.26
- Protein (75 µg/ml, day 9): 0 mg/mL
- Total (75 µg/ml, day 9): 50.56
- AA (75 µg/ml, day 10): 0.47 µ Moles/ml
- CH4 (75 µg/ml, day 10): 0 µ Moles
- H2 (75 µg/ml, day 10): 14 µ Moles
- HAc (acetate) (75 µg/ml, day 10): 18.71
- HBu (butyrate) (75 µg/ml, day 10): 8.16
- HFo (formate) (75 µg/ml, day 10): 2.52
- HPr (propionate) (75 µg/ml, day 10): 14.57
- HiBu (isobutyrate) (75 µg/ml, day 10): 3.74
- HiVal (isovalerate) (75 µg/ml, day 10): 0.27
- Protein (75 µg/ml, day 10): 0 mg/mL
- Total (75 µg/ml, day 10): 47.97
- Caloric Value of CH3 (75 µg/ml, produced on Day 10): 0
- Caloric Value of H2 (75 µg/ml, produced on Day 10): 0.96
- Caloric Value of HAc (75 µg/ml, produced on Day 10): 77.39
- Caloric Value of HBu (75 µg/ml, produced on Day 10): 74.05
- Caloric Value of HFo (75 µg/ml, produced on Day 10): 3.06
- Caloric Value of HPr (75 µg/ml, produced on Day 10): 114.76
- Caloric Value of HiBu (75 µg/ml, produced on Day 10): 31.54
- Caloric Value of HiVal (75 µg/ml, produced on Day 10): 3.80
- Caloric Value, Total (VFA's) (75 µg/ml, produced on Day 10): 304.60
- Total Cal in VFA & Gas (75 µg/ml, produced on Day 10): 305.56 cal
- CH4 produced on Day 10 [1]: 0
- H2 produced on Day 10 [1]: 14
- HAc (acetate) produced on Day 10 [1]: 369.6
- HBu (butyrate) produced on Day 10 [1]: 142.4
- HFo (formate) produced on Day 10 [1]: 48.8
- HPr (propionate) produced on Day 10 [1]: 314.4
- HiBu (isobutyrate) produced on Day 10 [1]: 86.4
- HiVal (isovalerate) produced on Day 10 [1]: 5.6
- Total VFA's produced on Day 10 [1]: 994.2
- Total energy in the end products (8.33 and 25 µg/ml): less than the control
- butyrate produced (8.33 and 75 µg/ml (not 25 µg/ml), versus control): more butyrate was produced
- methane (8.33 ppm): decreased slightly
- hydrogen production (25 and 75 ppm, first 6 days): no hydrogen production
- methane (25 and 75 ppm, first 6 days): slight decreases
- hydrogen produced (25 and 75 ppm, seventh day): some hydrogen produced
- methane (25 and 75 ppm, seventh day): dropped drastically
- increasing the number of calories available from the animals' feed (75 ppm dosage level, Table 3): most effective amount
- shift in volatile fatty acids produced (all dosage levels, Table 2): desired shift in volatile fatty acids produced away from acetate towards propionate
- Acetate [2]: decreased
- propionate [2]: increased
- activity in rumen fluid batch culture tests (tests of Examples 2 and 3): activity comparable to monensin

— patent EP0091090A2, “Bipyridine substituted imidazolidene copper complex and its use in food-producing animals, and bipyridine, 2,2'-(2-imidazolidinylidene) di-copper complex and use in animals” (INTERNATIONAL MINERALS & CHEMICAL CORPORATION, priority 1982, dated 1983)
